Experimental data from PubChem BioAssay AID330 (DTP/NCI, 2004).
Several values for one entry are separate records, joined by “and”; a condition that tells them apart may be missing. Equal values may be shown once. Inconclusive results and toxic doses are left out. Rule for the calls: active = survival T/C of 150% or more; inactive = T/C below 125% in these data. Peptide text beside a SMILES is read from it. * marks the point of attachment. Trt = c1ccc(C(c2ccccc2)(c2ccccc2)*)cc1; Cbz = O=C(OCc1ccccc1)*; Bn = c1ccc(C*)cc1; βAla = NCCC(=O)O

System: P388 leukemia ip, CD2F1 mice, survival T/C
Experiment: NCI In Vivo Anticancer Drug Screen. Data for tumor model P388 Leukemia (intraperitoneal) in CD2F1 (CDF1) mice
Conditions: endpoint: median survival time, higher = longer survival
Summary of the method: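 Mice carrying the transplanted tumor received test compound or vehicle. Survival was recorded in each group, and the value is the treated-group measurement divided by that of the vehicle-treated control group.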

[1] = dose: 50.0 mg/kg/injection, schedule: Q01DX009 (ip), vehicle: saline
[2] = dose: 100.0 mg/kg/injection, schedule: Q01DX009 (ip), vehicle: saline
[3] = dose: 50.0 mg/kg/injection, schedule: Q01DX005 (ip), vehicle: saline with Tween-80
[4] = dose: 100.0 mg/kg/injection, schedule: Q01DX005 (ip), vehicle: saline with Tween-80
[5] = dose: 200.0 mg/kg/injection, schedule: Q01DX005 (ip), vehicle: saline with Tween-80
[6] = dose: 60.0 mg/kg/injection, schedule: Q01DX005 (ip), vehicle: saline with Tween-80
[7] = dose: 120.0 mg/kg/injection, schedule: Q01DX005 (ip), vehicle: saline with Tween-80
[8] = dose: 50.0 mg/kg/injection, schedule: Q01DX009 (ip), vehicle: Klucel (hydroxypropylcellulose) (HPC)
[9] = dose: 100.0 mg/kg/injection, schedule: Q01DX009 (ip), vehicle: Klucel (hydroxypropylcellulose) (HPC)
[10] = dose: 50.0 mg/kg/injection, schedule: Q01DX005 (ip), vehicle: Klucel (hydroxypropylcellulose) (HPC)
[11] = dose: 100.0 mg/kg/injection, schedule: Q01DX005 (ip), vehicle: Klucel (hydroxypropylcellulose) (HPC)
[12] = dose: 200.0 mg/kg/injection, schedule: Q01DX005 (ip), vehicle: Klucel (hydroxypropylcellulose) (HPC)
[13] = dose: 200.0 mg/kg/injection, schedule: Q01DX009 (ip), vehicle: saline
[14] = dose: 100.0 mg/kg/injection, schedule: Q01DX009 (ip), vehicle: saline with Tween-80

Measured: T/C

COC1OC2COC(c3ccccc3)OC2C(O)[CH]1[Hg][O]C(C)=O (stereo not given)
inactive: dose: 0.1 mg/kg/injection, schedule: Q01DX009 (ip), vehicle: distilled water + Tween-80 100 % of control | dose: 0.19 mg/kg/injection, schedule: Q01DX009 (ip), vehicle: distilled water + Tween-80 96 % of control | dose: 0.38 mg/kg/injection, schedule: Q01DX009 (ip), vehicle: distilled water + Tween-80 107 % of control | dose: 0.78 mg/kg/injection, schedule: Q01DX009 (ip), vehicle: distilled water + Tween-80 99 % of control | dose: 1.56 mg/kg/injection, schedule: Q01DX009 (ip), vehicle: distilled water + Tween-80 91 % of control | dose: 3.13 mg/kg/injection, schedule: Q01DX009 (ip), vehicle: distilled water + Tween-80 104 % of control | dose: 6.25 mg/kg/injection, schedule: Q01DX009 (ip), vehicle: distilled water + Tween-80 96 % of control | dose: 12.5 mg/kg/injection, schedule: Q01DX009 (ip), vehicle: distilled water + Tween-80 110 % of control

C[N+](C)(C)NC1OC(C(O)S(=O)(=O)O)C(OCc2ccccc2)C(OCc2ccccc2)C1O (stereo not given)
inactive: [1] 104 % of control | [2] 106 % of control

COc1ccc(/C=C/C(C)=N/NC(N)=O)cc1
inactive: [3] 101 % of control | [4] 94 % of control | [5] 96 % of control

CN=C1C=CC(=C(c2ccc(N(C)C)cc2)c2ccc(N(C)C)cc2)C=C1
inactive: dose: 6.25 mg/kg/injection, schedule: Q01DX005 (ip), vehicle: Klucel (hydroxypropylcellulose) (HPC) 119 % of control

COc1ccc(C(=O)Nc2c(Cl)cccc2Cl)cc1OC
inactive: [6] 94 % of control | [7] 88 % of control

Nc1c(I)cc(I)cc1C(=O)O
inactive: [8] 99 % of control and 101 % of control | [9] 101 % of control and 114 % of control

CC1(C)N(O)C(c2cccnc2)=[N+]([O-])C1(C)C
inactive: [10] 104 % of control | [1] 97 % of control | [11] 101 % of control | [2] 94 % of control | [12] 103 % of control | [13] 102 % of control

CCOC(=O)Cc1cccc(C)n1
inactive: [14] 100 % of control | dose: 200.0 mg/kg/injection, schedule: Q01DX009 (ip), vehicle: saline with Tween-80 109 % of control | dose: 400.0 mg/kg/injection, schedule: Q01DX009 (ip), vehicle: saline with Tween-80 104 % of control

CCOC(=O)c1n[nH]c(=S)[nH]c1=O
inactive: [10] 104 % of control | [11] 108 % of control | [12] 101 % of control

S=C(Nc1ccc2c(c1)OCO2)SCc1ccc(Cl)c(Cl)c1
inactive: dose: 12.5 mg/kg/injection, schedule: Q01DX009 (ip), vehicle: Klucel (hydroxypropylcellulose) (HPC) 91 % of control | dose: 25.0 mg/kg/injection, schedule: Q01DX009 (ip), vehicle: Klucel (hydroxypropylcellulose) (HPC) 105 % of control | [8] 107 % of control | [1] 106 % of control | dose: 50.0 mg/kg/injection, schedule: Q01DX009 (ip), vehicle: suspension in saline 103 % of control | [2] 108 % of control | dose: 100.0 mg/kg/injection, schedule: Q01DX009 (ip), vehicle: suspension in saline 93 % of control | [13] 118 % of control | dose: 200.0 mg/kg/injection, schedule: Q01DX009 (ip), vehicle: suspension in saline 98 % of control

CC1(C)OC2C(CO)OC(n3c(Br)nc4c(N)ncnc43)C2O1 (stereo not given)
inactive: [3] 100 % of control | [4] 103 % of control | [5] 100 % of control

Clc1ccc(CSc2ncnc3nc[nH]c23)cc1
inactive: dose: 100.0 mg/kg/injection, schedule: Q04DX003 (ip), vehicle: saline with Tween-80 109 % of control | dose: 200.0 mg/kg/injection, schedule: Q04DX003 (ip), vehicle: saline with Tween-80 104 % of control | dose: 400.0 mg/kg/injection, schedule: Q04DX003 (ip), vehicle: saline with Tween-80 109 % of control

NS(=O)(=O)c1ccc(NC(=O)CCCCl)cc1
inactive: [8] 100 % of control | [9] 94 % of control | dose: 200.0 mg/kg/injection, schedule: Q01DX009 (ip), vehicle: Klucel (hydroxypropylcellulose) (HPC) 86 % of control

[I][Pt+2][I].[NH-]C(c1ccccc1)C([NH-])c1ccccc1 (stereo not given)
inactive: dose: 12.5 mg/kg/injection, schedule: Q04DX002 (ip), vehicle: saline with Tween-80 102 % of control | dose: 25.0 mg/kg/injection, schedule: Q04DX002 (ip), vehicle: saline with Tween-80 109 % of control and 111 % of control | dose: 50.0 mg/kg/injection, schedule: Q04DX002 (ip), vehicle: saline with Tween-80 115 % of control

CCCCC(CCCC)=NNC(=S)SC
inactive: dose: 50.0 mg/kg/injection, schedule: Q01DX009 (ip), vehicle: saline with Tween-80 100 % of control | [14] 100 % of control

COC(=S)NCCn1c([N+](=O)[O-])cnc1C
inactive: dose: 100.0 mg/kg/injection, schedule: Q01DX001 (ip), vehicle: saline with Tween-80 110 % of control | dose: 200.0 mg/kg/injection, schedule: Q01DX001 (ip), vehicle: saline with Tween-80 100 % of control | dose: 400.0 mg/kg/injection, schedule: Q01DX001 (ip), vehicle: saline with Tween-80 108 % of control

O=C1c2cccc3cccc(c23)C(=O)N1CC1CCCO1 (stereo not given)
inactive: [3] 99 % of control | [4] 101 % of control | [5] 94 % of control

COC(=O)C(CSC(c1ccccc1)(c1ccccc1)c1ccccc1)NC(=O)C(CSCc1ccccc1)NC(=O)CCNC(=O)OCc1ccccc1 (stereo not given) ({Cbz-βAla}-Cys(Bn)-Cys(Trt)-OMe; configuration not given here)
inactive: dose: 4.0 mg/kg/injection, schedule: Q01DX009 (ip), vehicle: water 102 % of control | dose: 8.0 mg/kg/injection, schedule: Q01DX009 (ip), vehicle: water 100 % of control | dose: 12.5 mg/kg/injection, schedule: Q01DX005 (ip), vehicle: Klucel (hydroxypropylcellulose) (HPC) 99 % of control | dose: 16.0 mg/kg/injection, schedule: Q01DX009 (ip), vehicle: water 99 % of control | dose: 25.0 mg/kg/injection, schedule: Q01DX005 (ip), vehicle: Klucel (hydroxypropylcellulose) (HPC) 102 % of control | dose: 32.0 mg/kg/injection, schedule: Q01DX009 (ip), vehicle: water 99 % of control | [10] 102 % of control | dose: 64.0 mg/kg/injection, schedule: Q01DX009 (ip), vehicle: water 89 % of control | [11] 102 % of control | dose: 128.0 mg/kg/injection, schedule: Q01DX009 (ip), vehicle: water 86 % of control | [12] 103 % of control

ClC1=C(Cl)C2(Cl)C3C(Cl)C(Cl)CC3C1(Cl)C2(Cl)Cl (stereo not given)
inactive: dose: 3.12 mg/kg/injection, schedule: Q01DX009 (ip), vehicle: saline + Tween-80 + alcohol 100 % of control and 101 % of control | dose: 6.25 mg/kg/injection, schedule: Q01DX009 (ip), vehicle: saline + Tween-80 + alcohol 107 % of control and 112 % of control | dose: 12.5 mg/kg/injection, schedule: Q01DX009 (ip), vehicle: saline + Tween-80 + alcohol 114 % of control and 87 % of control | dose: 25.0 mg/kg/injection, schedule: Q01DX009 (ip), vehicle: other 110 % of control and 89 % of control | dose: 25.0 mg/kg/injection, schedule: Q01DX009 (ip), vehicle: saline + Tween-80 + alcohol 103 % of control and 96 % of control | dose: 50.0 mg/kg/injection, schedule: Q01DX009 (ip), vehicle: other 110 % of control and 86 % of control and 98 % of control | dose: 100.0 mg/kg/injection, schedule: Q01DX009 (ip), vehicle: other 108 % of control and 93 % of control | dose: 200.0 mg/kg/injection, schedule: Q01DX009 (ip), vehicle: other 90 % of control

CCc1cccc(C)c1NC(=O)/C(Cl)=C(\Cl)C(=O)O
inactive: [6] 104 % of control | [7] 106 % of control
